Tests used:
Type in all cases: in vivo
[1] = system: Chilo suppressalis (Striped Rice Stemborer); assay: Chilo suppressalis (striped rice stemborer), artificial diet; settings: 144 h, application rate of 200 ppm, L2 larvae, 6 days after infestation, read-out: control in at least one of the three categories (mortality, anti-feeding or growth inhibition)
Method: Example 14: Chilo suppressalis (Striped Rice Stemborer)
24-well microtiter plates with artificial diet were treated with aqueous test solutions prepared from 10,000 ppm DMSO stock solutions by pipetting. After drying, the plates were infested with L2 larvae (6-8 per well). The samples were assessed for mortality, anti-feeding effect, and growth inhibition in comparison to untreated samples 6 days after infestation. Control of Chilo suppressalis by a test sample is given when at least one of the categories mortality, anti-feedant effect, and growth inhibition is higher than the untreated sample.

[2] = system: Spodoptera littoralis (Egyptian Cotton Leaf Worm); assay: Spodoptera littoralis (Egyptian cotton leaf worm), sprayed cotton leaf discs; settings: foliar, 72 h, application rate of 200 ppm, L1 larvae, 3 days after infestation, read-out: control in at least one of the three categories (mortality, anti-feeding, or growth inhibition)
Method: Example B10: Spodoptera littoralis (Egyptian Cotton Leaf Worm)
Cotton leaf discs were placed onto agar in 24-well microtiter plates and sprayed with aqueous test solutions prepared from 10,000 ppm DMSO stock solutions. After drying the leaf discs were infested with five L1 larvae. The samples were assessed for mortality, anti-feeding effect, and growth inhibition in comparison to untreated samples 3 days after infestation. Control of Spodoptera littoralis by a test sample is given when at least one of the categories mortality, anti-feedant effect, and growth inhibition is higher than the untreated sample.

[3] = system: Plutella xylostella (Diamond Back Moth); assay: Plutella xylostella (diamond back moth), artificial diet, eggs, 24-well; settings: 192 h, application rate of 200 ppm, eggs on artificial diet, 8 days after infestation, read-out: control in at least one of the two categories (mortality or growth inhibition)
Method: Example B5: Plutella xylostella (Diamond Back Moth)
24-well microtiter plates with artificial diet were treated with aqueous test solutions prepared from 10,000 ppm DMSO stock solutions by pipetting. After drying, Plutella eggs were pipetted through a plastic stencil onto a gel blotting paper and the plate was closed with it. The samples were assessed for mortality and growth inhibition in comparison to untreated samples 8 days after infestation.

[4] = system: Myzus persicae (Green Peach Aphid); assay: Myzus persicae (green peach aphid), intrinsic activity; settings: 120 h, test rate of 12 ppm, sucrose solution through Parafilm, 5 days after infestation
From the text: Example B8: Myzus persicae (Green Peach Aphid). Intrinsic Activity
Test compounds prepared from 10,000 ppm DMSO stock solutions were applied by pipette into 24-well microtiter plates and mixed with sucrose solution. The plates were closed with a stretched Parafilm. A plastic stencil with 24 holes was placed onto the plate and infested pea seedlings were placed directly on the Parafilm. The infested plate was closed with a gel blotting paper and another plastic stencil and then turned upside down. The samples were assessed for mortality 5 days after infestation.

[5] = system: Diabrotica balteata (corn root worm); assay: Diabrotica balteata (corn root worm), sprayed maize sprouts; settings: 96 h, application rate of 200 ppm, L2 larvae, 4 days after infestation, read-out: control in at least one of the two categories (mortality or growth inhibition)
Method: Example B2: Diabrotica Balteata (Corn Root Worm)
Maize sprouts placed onto an agar layer in 24-well microtiter plates were treated with aqueous test solutions prepared from 10,000 ppm DMSO stock solutions by spraying. After drying, the plates were infested with L2 larvae (6 to 10 per well). The samples were assessed for mortality and growth inhibition in comparison to untreated samples 4 days after infestation.

[6] = system: Euschistus heros (Neotropical Brown Stink Bug); assay: Euschistus heros (neotropical brown stink bug), sprayed soybean leaves; settings: 120 h, application rate of 200 ppm, N2 nymphs, 5 days after infestation, read-out: control in at least one of the two categories (mortality or growth inhibition)
Method: Example B3: Euschistus heros(Neotropical Brown Stink Bug)
Soybean leaves on agar in 24-well microtiter plates were sprayed with aqueous test solutions prepared from 10,000 ppm DMSO stock solutions. After drying the leaves were infested with N2 nymphs. The samples were assessed for mortality and growth inhibition in comparison to untreated samples 5 days after infestation.

[7] = system: Plutella xylostella (Diamondback Moth); assay: Plutella xylostella (diamondback moth), 96-well artificial diet, eggs; settings: 216 h, application rate of 500 ppm, eggs/L1 larvae, 9 days after infestation
Method: Example B13: Plutella xylostella (Diamondback Moth)
96-well microtiter plates containing artificial diet were treated with aqueous test solutions, prepared from 10,000 ppm DMSO stock solutions, by a liquid handling robot. After drying, eggs (˜30 per well) were infested onto a netted lid which was suspended above the diet. The eggs hatch and L1 larvae move down to the diet. The samples were assessed for mortality 9 days after infestation.

[8] = system: Tetranychus urticae (Two-Spotted Spider Mite); assay: Tetranychus urticae (two-spotted spider mite), feeding/contact activity; settings: 192 h
Method: Example B11: Tetranychus urticae (Two-Spotted Spider Mite):Feeding/Contact Activity
Bean leaf discs on agar in 24-well microtiter plates were sprayed with aqueous test solutions prepared from 10,000 ppm DMSO stock solutions. After drying the leaf discs were infested with a mite population of mixed ages. The samples were assessed for mortality on mixed population (mobile stages) 8 days after infestation.

CC(NC(=O)c1cc(OCC(F)F)cc(C(F)(F)F)c1)c1ncnn1-c1ncc(OC(F)F)cn1 (stereo not drawn) [Compound P12, 3-(2,2-difluoroethoxy)-N-[1-[2-[5-(difluoromethoxy)pyrimidin-2-yl]-1,2,4-triazol-3-yl]ethyl]-5-(trifluoromethyl) benzamide]
≥ 80%: percent control (mortality, anti-feedant effect or growth inhibition) at 200 ppm [1] | percent control (mortality, anti-feeding or growth inhibition) at 200 ppm [2] | percent control (mortality or growth inhibition) at 200 ppm [3] | mortality at 12 ppm [4]

CC(NC(=O)c1cc(C(F)(F)F)cc(C(F)(F)F)c1)c1ncnn1-c1ncc(OC(F)F)cn1 (stereo not drawn) [Compound P3, N-[1-[2-[5-(difluoromethoxy)pyrimidin-2-yl]-1,2,4-triazol-3-yl]ethyl]-3,5-bis(trifluoromethyl) benzamide]
≥ 80%: percent control (mortality, anti-feedant effect or growth inhibition) at 200 ppm [1] | percent control (mortality, anti-feeding or growth inhibition) at 200 ppm [2] | percent control (mortality or growth inhibition) at 200 ppm [5] | percent control (mortality or growth inhibition) at 200 ppm [6] | percent control (mortality or growth inhibition) at 200 ppm [3] | mortality at 12 ppm [4]

CC(NC(=O)c1cc(C(F)(F)F)cc(C(F)(F)F)c1)c1ncnn1-c1ccc(OC(F)F)cn1 (stereo not drawn) [Compound P11, N-[1-[2-[5-(difluoromethoxy)-2-pyridyl]-1,2,4-triazol-3-yl]ethyl]-3,5-bis(trifluoromethyl) benzamide]
≥ 80%: mortality at 500 ppm [7] | percent control (mortality, anti-feedant effect or growth inhibition) at 200 ppm [1] | percent control (mortality, anti-feeding or growth inhibition) at 200 ppm [2] | percent control (mortality or growth inhibition) at 200 ppm [5] | percent control (mortality or growth inhibition) at 200 ppm [3]

CC(NC(=O)c1cc(C(F)(F)F)cc(C(F)(F)F)c1)c1ncnn1-c1ncc(OCC(F)(F)F)cn1 (stereo not drawn) [Compound P4, N-[1-[2-[5-(2,2,2-trifluoroethoxy)pyrimidin-2-yl]-1,2,4-triazol-3-yl]ethyl]-3,5-bis(trifluoromethyl) benzamide]
≥ 80%: percent control (mortality, anti-feedant effect or growth inhibition) at 200 ppm [1] | percent control (mortality, anti-feeding or growth inhibition) at 200 ppm [2] | percent control (mortality or growth inhibition) at 200 ppm [5] | percent control (mortality or growth inhibition) at 200 ppm [3]

CC(NC(=O)c1cc(C(F)(F)F)cc(C(F)(F)F)c1)c1ncnn1-c1ccc(OCC(F)F)cn1 (stereo not drawn) [Compound P9, N-[1-[2-[5-(2,2-difluoroethoxy)-2-pyridyl]-1,2,4-triazol-3-yl]ethyl]-3,5-bis(trifluoromethyl) benzamide]
≥ 80%: percent control (mortality, anti-feedant effect or growth inhibition) at 200 ppm [1] | percent control (mortality, anti-feeding or growth inhibition) at 200 ppm [2] | percent control (mortality or growth inhibition) at 200 ppm [5] | percent control (mortality or growth inhibition) at 200 ppm [3]

CC(NC(=O)c1cc(C(F)(F)F)cc(C(F)(F)F)c1)c1ncnn1-c1ccc(OC(F)(F)F)cn1 (stereo not drawn) [Compound P6, N-[1-[2-[5-(trifluoromethoxy)-2-pyridyl]-1,2,4-triazol-3-yl]ethyl]-3,5-bis(trifluoromethyl) benzamide]
≥ 80%: mortality at 500 ppm [7] | mortality at 200 ppm [8] | percent control (mortality, anti-feedant effect or growth inhibition) at 200 ppm [1] | percent control (mortality, anti-feeding or growth inhibition) at 200 ppm [2] | percent control (mortality or growth inhibition) at 200 ppm [5] | percent control (mortality or growth inhibition) at 200 ppm [6] | percent control (mortality or growth inhibition) at 200 ppm [3]

CC(NC(=O)c1cc(C(F)(F)F)cc(C(F)(F)F)c1)c1ncnn1-c1ccc(O/C=C\C(F)(F)F)cn1 (stereo not drawn) [Compound P10, 3,5-bis(trifluoromethyl)-N-[1-[2-[5-[(Z)-3,3,3-trifluoroprop-1-enoxy]-2-pyridyl]-1,2,4-triazol-3-yl]ethyl]benzamide]
≥ 80%: mortality at 500 ppm [7] | percent control (mortality, anti-feedant effect or growth inhibition) at 200 ppm [1] | percent control (mortality or growth inhibition) at 200 ppm [3]

C[C@H](NC(=O)c1cc(C(F)(F)F)cc(C(F)(F)F)c1)c1ncnn1-c1ncc(OC(F)(F)F)cn1 [Compound P7, N-[(1S)-1-[2-[5-(trifluoromethoxy)pyrimidin-2-yl]-1,2,4-triazol-3-yl]ethyl]-3,5-bis(trifluoromethyl) benzamide]
≥ 80%: percent control (mortality, anti-feeding or growth inhibition) at 200 ppm [2] | percent control (mortality or growth inhibition) at 200 ppm [5] | percent control (mortality or growth inhibition) at 200 ppm [3]

CC(NC(=O)c1cc(C(F)(F)F)cc(C(F)(F)F)c1)c1ncnn1-c1ncc(OCC(F)F)cn1 (stereo not drawn) [Compound P5, N-[1-[2-[5-(2,2-difluoroethoxy)pyrimidin-2-yl]-1,2,4-triazol-3-yl]ethyl]-3,5-bis(trifluoromethyl) benzamide]
≥ 80%: percent control (mortality, anti-feedant effect or growth inhibition) at 200 ppm [1] | percent control (mortality, anti-feeding or growth inhibition) at 200 ppm [2] | percent control (mortality or growth inhibition) at 200 ppm [5] | percent control (mortality or growth inhibition) at 200 ppm [6] | percent control (mortality or growth inhibition) at 200 ppm [3]

CC(NC(=O)c1cc(C(F)(F)F)cc(C(F)(F)F)c1)c1ncnn1-c1ccc(OCC(F)(F)F)cn1 (stereo not drawn) [Compound P8, N-[1-[2-[5-(2,2,2-trifluoroethoxy)-2-pyridyl]-1,2,4-triazol-3-yl]ethyl]-3,5-bis(trifluoromethyl)benzamide]
≥ 80%: percent control (mortality, anti-feedant effect or growth inhibition) at 200 ppm [1] | percent control (mortality, anti-feeding or growth inhibition) at 200 ppm [2] | percent control (mortality or growth inhibition) at 200 ppm [5] | percent control (mortality or growth inhibition) at 200 ppm [3]
